{
  "source": "patent US7375136B2",
  "about": "“pH-dependent NMDA receptor antagonists” (Emory University, priority 2001, dated 2008)",
  "origin": "cited, not measured here",
  "target": "NR2B subunit-containing recombinant NMDA receptors (Homo sapiens, UniProt Q05586+Q13224)",
  "sequence (Q13224 27-1484, other chains not shown)": "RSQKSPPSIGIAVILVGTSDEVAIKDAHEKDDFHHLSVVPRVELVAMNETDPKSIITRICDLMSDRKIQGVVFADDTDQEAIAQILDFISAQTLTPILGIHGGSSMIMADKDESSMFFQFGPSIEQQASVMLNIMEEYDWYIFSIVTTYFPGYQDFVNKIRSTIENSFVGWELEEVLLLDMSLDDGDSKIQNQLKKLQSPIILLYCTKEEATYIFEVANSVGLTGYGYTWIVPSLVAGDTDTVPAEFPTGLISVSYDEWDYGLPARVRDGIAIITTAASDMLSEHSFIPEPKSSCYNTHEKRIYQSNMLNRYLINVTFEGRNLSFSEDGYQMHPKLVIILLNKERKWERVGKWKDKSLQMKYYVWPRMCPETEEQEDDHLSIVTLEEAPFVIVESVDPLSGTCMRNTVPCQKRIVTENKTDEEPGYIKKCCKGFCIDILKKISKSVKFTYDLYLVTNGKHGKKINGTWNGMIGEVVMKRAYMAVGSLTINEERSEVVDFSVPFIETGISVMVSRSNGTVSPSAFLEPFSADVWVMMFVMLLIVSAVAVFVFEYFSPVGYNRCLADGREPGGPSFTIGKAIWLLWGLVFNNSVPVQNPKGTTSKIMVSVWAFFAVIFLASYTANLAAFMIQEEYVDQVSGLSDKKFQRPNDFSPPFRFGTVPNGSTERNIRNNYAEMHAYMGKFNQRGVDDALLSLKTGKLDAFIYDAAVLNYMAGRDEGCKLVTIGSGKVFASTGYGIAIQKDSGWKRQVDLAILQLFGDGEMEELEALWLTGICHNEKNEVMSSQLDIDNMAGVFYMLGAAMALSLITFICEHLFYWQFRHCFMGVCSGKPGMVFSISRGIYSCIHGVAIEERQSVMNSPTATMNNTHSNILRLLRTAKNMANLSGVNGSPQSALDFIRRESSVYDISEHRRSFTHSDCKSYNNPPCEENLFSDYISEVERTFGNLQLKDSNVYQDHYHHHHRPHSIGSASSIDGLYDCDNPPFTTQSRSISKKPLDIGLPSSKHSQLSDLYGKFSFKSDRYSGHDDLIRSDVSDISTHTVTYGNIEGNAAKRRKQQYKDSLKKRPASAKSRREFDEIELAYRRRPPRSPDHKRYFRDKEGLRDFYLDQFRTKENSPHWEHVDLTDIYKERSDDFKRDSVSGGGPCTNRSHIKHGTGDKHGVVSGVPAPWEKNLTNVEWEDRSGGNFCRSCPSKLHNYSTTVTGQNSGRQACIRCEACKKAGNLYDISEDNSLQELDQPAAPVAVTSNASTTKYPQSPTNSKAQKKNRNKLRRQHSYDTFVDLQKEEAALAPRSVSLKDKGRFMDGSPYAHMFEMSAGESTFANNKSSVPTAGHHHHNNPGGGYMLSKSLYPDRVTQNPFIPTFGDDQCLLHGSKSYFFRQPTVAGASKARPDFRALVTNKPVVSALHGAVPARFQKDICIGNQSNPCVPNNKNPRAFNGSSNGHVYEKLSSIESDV",
  "details": "pH 6.8 compared to pH 7.5; cited from earlier work",
  "data": [
    {"smiles": "CC(C(O)c1ccc(O)cc1)N1CCC(Cc2ccccc2)CC1", "note": "(stereo not shown) [Ifenprodil]", "values": [
      {"measurement": "potency for inhibition of NR2B subunit-containing recombinant NMDA receptors as a function of pH", "value": "enhanced at pH 6.8 compared to pH 7.5"}
    ]}
  ]
}
